Experimental data reported in patent US20230263822A1, “MODULATION OF FACTOR 11 EXPRESSION” (Ionis Pharmaceuticals, Inc., priority 2008, published 2023).
Strand notation (5' to 3'): a small letter for the sugar, then the base; units joined by * are phosphorothioate-linked, units joined directly phosphodiester-linked; [ ] holds rarer units or linkages, { } end groups; capitals alone tell only the bases. e = 2'-O-(2-methoxyethyl) (MOE); [5mC] = 5-methylcytosine; d = 2'-deoxy (DNA)

Test system: human Factor 11 mRNA
Experiment: Antisense inhibition of human Factor 11 in HepG2 cells by microwalk gapmers, lipofectin, 75 nM (Example 3)
Format: cell-based
Method: These gapmers were designed by creating gapmers shifted slightly upstream and downstream (i.e. “microwalk”) of the original gapmers from Table 3. Gapmers were also created with various motifs, e.g. 5-10-5 MOE, 3-14-3 MOE, and 2-13-5 MOE. These gapmers were tested in vitro. Cultured HepG2 cells at a density of 10,000 cells per well were transfected using lipofectin reagent with 75 nM antisense oligonucleotide. After a treatment period of approximately 24 hours, RNA was isolated from the cells and Factor 11 mRNA levels were measured by quantitative real-time PCR. Factor 11 mRNA levels were adjusted according to total RNA content, as measured by RIBOGREEN. Results are presented as percent inhibition of Factor 11, relative to untreated control cells.
The chimeric antisense oligonucleotides in Table 4 were designed as 5-10-5 MOE, 3-14-3 MOE, and 2-13-5 MOE gapmers. The first listed gapmers in Table 4 are the original gapmers (see Table 3) from which the remaining gapmers were designed via microwalk and are designated by an asterisk. The 5-10-5 gapmers are 20 nucleotides in length, wherein the central gap segment is comprised of 10 2′-deoxynucleotides and is flanked on both sides (in the 5′ and 3′ directions) by wings comprising 5 nucleotides each. The 3-14-3 gapmers are 20 nucleotides in length, wherein the central gap segment is comprised of 14 2′-deoxynucleotides and is flanked on both sides (in the 5′ and 3′ directions) by wings comprising 3 nucleotides each. The 2-13-5 gapmers are 20 nucleotides in length, wherein the central gap segment is comprised of 13 2′-deoxynucleotides. The central gap is flanked on the 5′ end with a wing comprising 2 nucleotides and on the 3′ end with a wing comprising 5 nucleotides. For each of the motifs (5-10-5, 3-14-3, and 2-13-5), each nucleotide in the 5′ wing segment and each nucleotide in the 3′ wing segment has a 2′-MOE modification. The internucleoside linkages throughout each gapmer are phosphorothioate (P=S) linkages. All cytidine residues throughout each gapmer are 5-methyl cytidines. “Target start site” indicates the 5′-most nucleotide to which the gapmer is targeted. “Target stop site” indicates the 3′-most nucleotide to which the gapmer is targeted. Each gapmer listed in Table 4 is targeted to SEQ ID NO: 1 (GENBANK Accession No. NM_000128.3).

[1] = HepG2 cells, lipofectin, gapmers targeted to nucleobases 1062 to 1091 of SEQ ID NO: 1
[2] = HepG2, lipofectin, ~24 h, gapmers targeted to nucleobases 656 to 704 of SEQ ID NO: 1
[3] = HepG2 cells, lipofectin, gapmers targeted to nucleobases 1018 to 1042 of SEQ ID NO: 1
[4] = HepG2 cells, lipofectin, gapmers targeted to nucleobases 1275 to 1318 of SEQ ID NO: 1

Substance	% inhibition [2] [%]	also measured
416988 (antisense eA*eG*dA*dT*dT*d[5mC]*dT*dT*dT*dG*dG*dG*d[5mC]*d[5mC]*dA*eT*eT*e[5mC]*e[5mC]*eT) [compound 416988]	–	% inhibition [1]: 76%
416831 (antisense eA*eT*e[5mC]*e[5mC]*eG*dT*dG*d[5mC]*dA*dT*d[5mC]*dT*dT*dT*d[5mC]*eT*eT*eG*eG*e[5mC]) [compound 416831]	–	% inhibition (HepG2 cells, lipofectin, gapmers targeted to nucleobases 738 to 762 of SEQ ID NO: 1): 91%
416876 (antisense eT*e[5mC]*e[5mC]*dA*d[5mC]*dA*dT*dA*dA*dA*dT*dG*dT*d[5mC]*dT*dT*dT*eG*eT*eT) [compound 416876]	37	–
416968 (antisense e[5mC]*e[5mC]*d[5mC]*dT*dT*d[5mC]*dA*dT*dG*dT*d[5mC]*dT*dA*dG*dG*eT*e[5mC]*e[5mC]*eA*e[5mC]) [compound 416968]	73	–
416983 (antisense eA*eA*d[5mC]*d[5mC]*dG*dG*dG*dA*dT*dG*dA*dT*dG*dA*dG*eT*eG*e[5mC]*eA*eG) [compound 416983]	–	% inhibition [3]: 86%
416873 (antisense eA*e[5mC]*eA*dT*dA*dA*dA*dT*dG*dT*d[5mC]*dT*dT*dT*dG*dT*dT*eG*e[5mC]*eA) [compound 416873]	51	–
416954 (antisense eG*eT*d[5mC]*d[5mC]*dA*d[5mC]*dA*dT*dA*dA*dA*dT*dG*dT*d[5mC]*eT*eT*eT*eG*eT) [compound 416954]	61	–
416845 (antisense eT*e[5mC]*eT*eT*eT*dG*dA*dG*dA*dT*dT*d[5mC]*dT*dT*dT*eG*eG*eG*e[5mC]*e[5mC]) [compound 416845]	–	% inhibition [1]: 86%
416846 (antisense eT*eT*e[5mC]*eT*eT*dT*dG*dA*dG*dA*dT*dT*d[5mC]*dT*dT*eT*eG*eG*eG*e[5mC]) [compound 416846]	–	% inhibition [1]: 72%
416882 (antisense eT*e[5mC]*eT*dA*dG*dG*dT*d[5mC]*d[5mC]*dA*d[5mC]*dA*dT*dA*dA*dA*dT*eG*eT*e[5mC]) [compound 416882]	60	–
416963 (antisense e[5mC]*eA*dT*dG*dT*d[5mC]*dT*dA*dG*dG*dT*d[5mC]*d[5mC]*dA*d[5mC]*eA*eT*eA*eA*eA) [compound 416963]	48	–
416884 (antisense eT*eG*eT*d[5mC]*dT*dA*dG*dG*dT*d[5mC]*d[5mC]*dA*d[5mC]*dA*dT*dA*dA*eA*eT*eG) [compound 416884]	69	–
416974 (antisense eT*eT*dT*dA*dT*dG*d[5mC]*d[5mC]*d[5mC]*dT*dT*d[5mC]*dA*dT*dG*eT*e[5mC]*eT*eA*eG) [compound 416974]	73	–
416904 (antisense e[5mC]*e[5mC]*eG*dG*dG*dA*dT*dG*dA*dT*dG*dA*dG*dT*dG*d[5mC]*dA*eG*eA*eT) [compound 416904]	–	% inhibition [3]: 90%
416870 (antisense eT*eA*eA*dA*dT*dG*dT*d[5mC]*dT*dT*dT*dG*dT*dT*dG*d[5mC]*dA*eA*eG*e[5mC]) [compound 416870]	76	–
416886 (antisense e[5mC]*eA*eT*dG*dT*d[5mC]*dT*dA*dG*dG*dT*d[5mC]*d[5mC]*dA*d[5mC]*dA*dT*eA*eA*eA) [compound 416886]	74	–
416821 (antisense eT*e[5mC]*eA*eT*eG*dT*d[5mC]*dT*dA*dG*dG*dT*d[5mC]*d[5mC]*dA*e[5mC]*eA*eT*eA*eA) [compound 416821]	84	–
416875 (antisense e[5mC]*e[5mC]*eA*d[5mC]*dA*dT*dA*dA*dA*dT*dG*dT*d[5mC]*dT*dT*dT*dG*eT*eT*eG) [compound 416875]	75	–
416868 (antisense eA*eA*eT*dG*dT*d[5mC]*dT*dT*dT*dG*dT*dT*dG*d[5mC]*dA*dA*dG*e[5mC]*eG*e[5mC]) [compound 416868]	93	–
416967 (antisense e[5mC]*e[5mC]*dT*dT*d[5mC]*dA*dT*dG*dT*d[5mC]*dT*dA*dG*dG*dT*e[5mC]*e[5mC]*eA*e[5mC]*eA) [compound 416967]	75	–
416982 (antisense eA*e[5mC]*d[5mC]*dG*dG*dG*dA*dT*dG*dA*dT*dG*dA*dG*dT*eG*e[5mC]*eA*eG*eA) [compound 416982]	–	% inhibition [3]: 84%

Substance	% inhibition [2] [%]	also measured
416893 (antisense eT*eG*e[5mC]*d[5mC]*d[5mC]*dT*dT*d[5mC]*dA*dT*dG*dT*d[5mC]*dT*dA*dG*dG*eT*e[5mC]*e[5mC]) [compound 416893]	90	–
416871 (antisense eA*eT*eA*dA*dA*dT*dG*dT*d[5mC]*dT*dT*dT*dG*dT*dT*dG*d[5mC]*eA*eA*eG) [compound 416871]	28	–
416946 (antisense eA*eA*dA*dT*dG*dT*d[5mC]*dT*dT*dT*dG*dT*dT*dG*d[5mC]*eA*eA*eG*e[5mC]*eG) [compound 416946]	86	–
416889 (antisense e[5mC]*eT*eT*d[5mC]*dA*dT*dG*dT*d[5mC]*dT*dA*dG*dG*dT*d[5mC]*d[5mC]*dA*e[5mC]*eA*eT) [compound 416889]	60	–
417018 (antisense eG*eG*d[5mC]*dA*dG*d[5mC]*dG*dG*dA*d[5mC]*dG*dG*d[5mC]*dA*dT*eT*eG*eG*eT*eG) [compound 417018]	–	% inhibition [4]: 82%
416839 (antisense eG*eA*eT*eT*e[5mC]*dT*dT*dT*dG*dG*dG*d[5mC]*d[5mC]*dA*dT*eT*e[5mC]*e[5mC]*eT*eG) [compound 416839]	–	% inhibition [1]: 89%
417005 (antisense eA*eT*dT*dG*dG*dT*dG*d[5mC]*dA*d[5mC]*dA*dG*dT*dT*dT*e[5mC]*eT*eG*eG*e[5mC]) [compound 417005]	–	% inhibition [4]: 79%
416877 (antisense eG*eT*e[5mC]*d[5mC]*dA*d[5mC]*dA*dT*dA*dA*dA*dT*dG*dT*d[5mC]*dT*dT*eT*eG*eT) [compound 416877]	51	–
416843 (antisense eT*eT*eT*eG*eA*dG*dA*dT*dT*d[5mC]*dT*dT*dT*dG*dG*eG*e[5mC]*e[5mC]*eA*eT) [compound 416843]	–	% inhibition [1]: 89%
416986 (antisense eA*eT*dT*d[5mC]*dT*dT*dT*dG*dG*dG*d[5mC]*d[5mC]*dA*dT*dT*e[5mC]*e[5mC]*eT*eG*eG) [compound 416986]	–	% inhibition [1]: 88%
416955 (antisense eG*eG*dT*d[5mC]*d[5mC]*dA*d[5mC]*dA*dT*dA*dA*dA*dT*dG*dT*e[5mC]*eT*eT*eT*eG) [compound 416955]	75	–
416905 (antisense eA*e[5mC]*e[5mC]*dG*dG*dG*dA*dT*dG*dA*dT*dG*dA*dG*dT*dG*d[5mC]*eA*eG*eA) [compound 416905]	–	% inhibition [3]: 85%
417008 (antisense eG*eG*d[5mC]*dA*dT*dT*dG*dG*dT*dG*d[5mC]*dA*d[5mC]*dA*dG*eT*eT*eT*e[5mC]*eT) [compound 417008]	–	% inhibition [4]: 82%
416932 (antisense e[5mC]*eG*eG*d[5mC]*dA*dT*dT*dG*dG*dT*dG*d[5mC]*dA*d[5mC]*dA*dG*dT*eT*eT*e[5mC]) [compound 416932]	–	% inhibition [4]: 92%
416807 (antisense eT*eA*eA*eA*eT*dG*dT*d[5mC]*dT*dT*dT*dG*dT*dT*dG*e[5mC]*eA*eA*eG*e[5mC]) [compound 416807]	51	–
417011 (antisense eG*eA*d[5mC]*dG*dG*d[5mC]*dA*dT*dT*dG*dG*dT*dG*d[5mC]*dA*e[5mC]*eA*eG*eT*eT) [compound 417011]	–	% inhibition [4]: 86%
416942 (antisense eT*eG*eG*d[5mC]*dA*dG*d[5mC]*dG*dG*dA*d[5mC]*dG*dG*d[5mC]*dA*dT*dT*eG*eG*eT) [compound 416942]	–	% inhibition [4]: 85%
416957 (antisense eT*eA*dG*dG*dT*d[5mC]*d[5mC]*dA*d[5mC]*dA*dT*dA*dA*dA*dT*eG*eT*e[5mC]*eT*eT) [compound 416957]	59	–
416917 (antisense eT*e[5mC]*eT*dT*dT*dG*dA*dG*dA*dT*dT*d[5mC]*dT*dT*dT*dG*dG*eG*e[5mC]*e[5mC]) [compound 416917]	–	% inhibition [1]: 92%
416933 (antisense eA*e[5mC]*eG*dG*d[5mC]*dA*dT*dT*dG*dG*dT*dG*d[5mC]*dA*d[5mC]*dA*dG*eT*eT*eT) [compound 416933]	–	% inhibition [4]: 92%
416890 (antisense e[5mC]*e[5mC]*eT*dT*d[5mC]*dA*dT*dG*dT*d[5mC]*dT*dA*dG*dG*dT*d[5mC]*d[5mC]*eA*e[5mC]*eA) [compound 416890]	87	–
